Measured values published in ChEMBL document CHEMBL6078625 (J Med Chem, 2024).

Key:
[1] = biological target: Epithelial discoidin domain-containing receptor 1 (Homo sapiens, UniProt Q08345); assay: Inhibition of human DDR1 by discoverX kinome scan assay
[2] = biological target: T1, Discoidin domain-containing receptor 2 (Homo sapiens, UniProt Q16832); assay: Inhibition of human DDR2 by discoverX kinome scan assay
T1 sequence (Q16832 whole entry): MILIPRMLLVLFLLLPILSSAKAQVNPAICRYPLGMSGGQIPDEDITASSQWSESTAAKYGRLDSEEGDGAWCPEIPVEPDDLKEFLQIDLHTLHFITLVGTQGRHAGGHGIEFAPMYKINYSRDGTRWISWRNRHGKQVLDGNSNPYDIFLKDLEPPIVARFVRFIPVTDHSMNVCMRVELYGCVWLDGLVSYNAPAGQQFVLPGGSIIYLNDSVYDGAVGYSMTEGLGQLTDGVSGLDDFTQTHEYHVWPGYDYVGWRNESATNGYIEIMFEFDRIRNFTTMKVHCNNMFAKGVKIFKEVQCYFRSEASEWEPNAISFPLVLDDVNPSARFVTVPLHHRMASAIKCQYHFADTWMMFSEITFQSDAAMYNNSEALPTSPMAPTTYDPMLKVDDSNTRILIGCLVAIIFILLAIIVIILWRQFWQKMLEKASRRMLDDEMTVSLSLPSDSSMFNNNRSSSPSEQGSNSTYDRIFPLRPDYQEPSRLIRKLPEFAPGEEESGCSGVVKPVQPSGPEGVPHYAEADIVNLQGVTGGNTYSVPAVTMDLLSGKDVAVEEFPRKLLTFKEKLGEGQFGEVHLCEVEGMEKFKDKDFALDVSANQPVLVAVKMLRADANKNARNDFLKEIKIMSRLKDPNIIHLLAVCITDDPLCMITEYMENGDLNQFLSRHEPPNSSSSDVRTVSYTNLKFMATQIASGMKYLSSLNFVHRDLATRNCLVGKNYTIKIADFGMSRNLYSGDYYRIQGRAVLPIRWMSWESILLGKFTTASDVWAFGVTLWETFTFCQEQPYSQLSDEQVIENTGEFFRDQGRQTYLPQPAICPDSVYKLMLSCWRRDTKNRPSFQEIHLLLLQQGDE

[3] = biological target: High affinity nerve growth factor receptor (Homo sapiens, UniProt P04629); assay: Inhibition of human TRKA by discoverX kinome scan assay
[4] = biological target: T2, Muscle, skeletal receptor tyrosine-protein kinase (Homo sapiens, UniProt O15146); assay: Inhibition of human MUSK by discoverX kinome scan assay
T2 sequence (O15146 whole entry): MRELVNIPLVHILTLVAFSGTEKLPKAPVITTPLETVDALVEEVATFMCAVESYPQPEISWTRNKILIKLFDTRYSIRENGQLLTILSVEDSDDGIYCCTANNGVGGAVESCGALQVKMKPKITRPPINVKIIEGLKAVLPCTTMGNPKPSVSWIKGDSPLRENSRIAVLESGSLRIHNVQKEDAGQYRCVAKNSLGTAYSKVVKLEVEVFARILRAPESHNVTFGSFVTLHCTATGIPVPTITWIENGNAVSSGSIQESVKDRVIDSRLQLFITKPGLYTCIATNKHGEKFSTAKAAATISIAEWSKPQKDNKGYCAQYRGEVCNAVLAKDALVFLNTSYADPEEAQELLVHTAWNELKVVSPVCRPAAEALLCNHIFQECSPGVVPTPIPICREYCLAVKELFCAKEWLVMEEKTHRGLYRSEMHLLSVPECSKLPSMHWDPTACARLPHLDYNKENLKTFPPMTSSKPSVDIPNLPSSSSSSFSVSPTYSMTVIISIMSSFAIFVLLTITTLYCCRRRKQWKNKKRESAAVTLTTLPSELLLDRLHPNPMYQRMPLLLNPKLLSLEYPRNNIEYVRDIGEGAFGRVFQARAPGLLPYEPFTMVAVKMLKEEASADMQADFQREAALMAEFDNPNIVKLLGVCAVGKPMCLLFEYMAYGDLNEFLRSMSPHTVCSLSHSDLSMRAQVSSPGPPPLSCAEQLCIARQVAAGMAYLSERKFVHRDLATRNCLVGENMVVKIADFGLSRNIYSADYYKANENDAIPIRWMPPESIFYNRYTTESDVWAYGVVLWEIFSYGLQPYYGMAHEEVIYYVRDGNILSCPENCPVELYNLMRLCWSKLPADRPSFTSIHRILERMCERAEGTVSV

[5] = biological target: T3, Receptor-type tyrosine-protein kinase FLT3 (Homo sapiens, UniProt P36888); assay: Inhibition of wild type FLT3 (unknown origin)
T3 sequence (P36888 whole entry): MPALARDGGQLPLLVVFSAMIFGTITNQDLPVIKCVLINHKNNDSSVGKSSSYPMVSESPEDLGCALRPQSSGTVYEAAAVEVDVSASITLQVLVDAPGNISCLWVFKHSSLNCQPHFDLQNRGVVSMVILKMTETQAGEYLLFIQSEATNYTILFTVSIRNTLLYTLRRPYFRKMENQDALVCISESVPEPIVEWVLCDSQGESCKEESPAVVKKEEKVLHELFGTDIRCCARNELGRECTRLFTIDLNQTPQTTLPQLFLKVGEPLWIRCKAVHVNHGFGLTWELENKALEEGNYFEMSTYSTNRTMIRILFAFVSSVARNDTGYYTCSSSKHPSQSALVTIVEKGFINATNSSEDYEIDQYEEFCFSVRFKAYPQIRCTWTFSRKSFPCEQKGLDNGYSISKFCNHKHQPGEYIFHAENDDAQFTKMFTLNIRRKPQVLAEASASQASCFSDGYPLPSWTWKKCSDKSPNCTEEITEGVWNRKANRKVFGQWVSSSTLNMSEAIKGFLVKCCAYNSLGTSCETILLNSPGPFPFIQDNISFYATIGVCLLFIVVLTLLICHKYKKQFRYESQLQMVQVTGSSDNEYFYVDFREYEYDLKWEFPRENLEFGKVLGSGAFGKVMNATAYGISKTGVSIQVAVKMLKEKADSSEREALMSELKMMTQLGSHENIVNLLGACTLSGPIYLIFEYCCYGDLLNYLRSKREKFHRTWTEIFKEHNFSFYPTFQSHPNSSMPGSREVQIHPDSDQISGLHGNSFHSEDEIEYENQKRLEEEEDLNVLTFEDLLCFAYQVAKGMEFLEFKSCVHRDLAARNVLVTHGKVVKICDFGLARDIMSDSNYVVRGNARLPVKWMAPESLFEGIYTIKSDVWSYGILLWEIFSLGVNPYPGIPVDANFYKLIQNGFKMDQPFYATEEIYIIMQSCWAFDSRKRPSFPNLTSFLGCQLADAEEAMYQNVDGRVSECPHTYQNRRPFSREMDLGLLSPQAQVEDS

MOLM-13 = assay: Antiproliferative activity against human MOLM-13 cells; assay type: functional, cell-based
MV4-11 = assay: Antiproliferative activity against human MV4-11 cells; assay type: functional, cell-based
BaF3 [6] = assay: Antiproliferative activity against mouse BaF3 cells harbouring FLT3-ITD-F691L mutant; assay type: functional, cell-based
BaF3 [7] = assay: Antiproliferative activity against mouse BaF3 cells harbouring FLT3-ITD-N676D mutant; assay type: functional, cell-based
BaF3 [8] = assay: Antiproliferative activity against mouse BaF3 cells harbouring FLT3-ITD-D835V mutant; assay type: functional, cell-based

High affinity nerve growth factor receptor, sequence (P04629 whole entry): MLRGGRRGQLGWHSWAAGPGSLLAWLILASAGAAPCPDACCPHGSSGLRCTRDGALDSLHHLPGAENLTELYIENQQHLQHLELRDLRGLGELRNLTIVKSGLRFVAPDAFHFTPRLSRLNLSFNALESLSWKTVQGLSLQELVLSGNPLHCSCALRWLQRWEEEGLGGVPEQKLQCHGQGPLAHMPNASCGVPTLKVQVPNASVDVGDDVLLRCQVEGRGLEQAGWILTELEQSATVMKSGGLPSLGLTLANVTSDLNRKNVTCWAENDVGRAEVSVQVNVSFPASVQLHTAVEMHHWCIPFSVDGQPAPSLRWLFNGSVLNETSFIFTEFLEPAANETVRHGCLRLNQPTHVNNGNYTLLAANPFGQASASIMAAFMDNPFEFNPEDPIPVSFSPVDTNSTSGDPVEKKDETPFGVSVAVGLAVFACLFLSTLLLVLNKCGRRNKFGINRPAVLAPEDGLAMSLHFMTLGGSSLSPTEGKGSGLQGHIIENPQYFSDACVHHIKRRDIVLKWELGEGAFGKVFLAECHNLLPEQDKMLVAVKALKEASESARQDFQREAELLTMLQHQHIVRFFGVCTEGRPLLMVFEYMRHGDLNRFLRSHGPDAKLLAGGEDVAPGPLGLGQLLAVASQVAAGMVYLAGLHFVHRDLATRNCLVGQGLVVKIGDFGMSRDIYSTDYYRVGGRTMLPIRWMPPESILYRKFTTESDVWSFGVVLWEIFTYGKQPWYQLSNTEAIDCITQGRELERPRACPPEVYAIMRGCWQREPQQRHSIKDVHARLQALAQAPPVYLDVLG
Epithelial discoidin domain-containing receptor 1, sequence (Q08345 whole entry, the tested form may be a part): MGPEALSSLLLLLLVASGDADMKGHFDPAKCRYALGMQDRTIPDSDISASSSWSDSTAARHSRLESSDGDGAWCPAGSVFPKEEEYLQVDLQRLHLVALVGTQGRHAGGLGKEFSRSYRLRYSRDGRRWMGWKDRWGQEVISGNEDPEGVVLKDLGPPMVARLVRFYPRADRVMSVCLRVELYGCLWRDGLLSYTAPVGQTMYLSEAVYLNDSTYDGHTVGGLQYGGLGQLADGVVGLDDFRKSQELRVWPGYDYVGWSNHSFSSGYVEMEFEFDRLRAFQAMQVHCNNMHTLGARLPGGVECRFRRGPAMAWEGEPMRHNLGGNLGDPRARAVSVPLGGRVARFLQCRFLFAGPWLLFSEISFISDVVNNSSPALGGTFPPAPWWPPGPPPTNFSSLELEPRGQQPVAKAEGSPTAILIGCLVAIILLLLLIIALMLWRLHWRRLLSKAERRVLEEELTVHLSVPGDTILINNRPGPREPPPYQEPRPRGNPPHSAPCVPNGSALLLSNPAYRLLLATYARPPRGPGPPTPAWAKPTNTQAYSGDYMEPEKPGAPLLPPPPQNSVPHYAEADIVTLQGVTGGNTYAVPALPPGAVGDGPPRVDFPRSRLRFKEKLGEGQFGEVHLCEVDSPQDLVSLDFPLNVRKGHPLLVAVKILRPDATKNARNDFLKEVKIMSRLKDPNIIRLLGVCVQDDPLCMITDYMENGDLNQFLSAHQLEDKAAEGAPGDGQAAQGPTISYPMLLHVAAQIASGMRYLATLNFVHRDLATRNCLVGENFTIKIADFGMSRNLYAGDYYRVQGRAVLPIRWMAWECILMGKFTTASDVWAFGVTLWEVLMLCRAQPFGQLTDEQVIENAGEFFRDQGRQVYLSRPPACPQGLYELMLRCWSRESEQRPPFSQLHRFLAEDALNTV

IC50 [1] [µM] | IC50 [2] [µM] | IC50 [3] [µM] | IC50 [4] [µM] | IC50 [5] [µM] | IC50 (MOLM-13) [µM] | IC50 (MV4-11) [µM] | IC50 (BaF3 [6]) [µM] | IC50 (BaF3 [7]) [µM] | IC50 (BaF3 [8]) [µM] | SMILES
0.0554 | 0.0967 | 0.113 | > 1 | – | – | – | – | – | – | Cc1cc(-c2ccc(NC(=O)Nc3ccc(C(C)(C)C)cc3)cc2)c2c(N)noc2n1
– | – | – | – | 0.103 | 0.14 | 0.058 | 3.57 | 1.16 | 8.42 | COc1cccc(CC(=O)Nc2ccc(-c3cc(C)nc4nocc34)cc2)c1
